Assay: Effervescence measure by release of CO2, Bernard's calcimeter, water heated to 37° C.
Format: physicochemical
Conditions: acid compound mixed with Na bicarbonate
Description: Effervescence Measure by Release of CO2
Working of the Bernard's calcimeter.
The assay consists in verifying the working of the equipment of the Bernard's calcimeter.
A little modification has been made on the rubber stopper of the lateral neck by adding a tap. This addition is necessary until at time 0, the experiment begins with an inner pressure equal to the atmospheric pressure.
Introduce a saturated sodium chloride solution in the flask and the graduated tube
Adjust the level of the graduated tube before starting the experiment
Lay on the magnetic heating stirrer the flask containing 100 ml of distilled water at 37° C.
Fill up the flask with a stopper previously fixed at the end of the releasing tube of CO2
Introduce the suppository in the flask without contact occurring between the suppository and the water
Verify again the sodium chloride level in the graduated tube before turning off the tap of the side stopper
Turn on the stirrer and drop the suppository, without forget to unlock the chronometer
Thus, it is necessary to heat the water until 37° C. Thus a magnetic heating stirrer has been used.

In the case of `O=C1CCC(=O)N1` [succinimide], the “CO2 release (in words)” value is reported as “only induces a reduced and delayed release”.

Source: patent US6461638B1, “Laxative compositions and method for making same” (Techni-Pharma, priority 1996, dated 2002)
